Where two headings read alike, the source gives them in different places.
Key:
Human μ-opioid receptor = Human μ-opioid receptor (Homo sapiens, UniProt P35372); assay: biochemical; format: binding
[1] = molecular target: Human α2δ-1 subunit of Cav2.2 calcium channel (Homo sapiens, UniProt P54289); assay: biochemical; format: binding
Sequence of Human α2δ-1 subunit of Cav2.2 calcium channel (P54289 25-1103): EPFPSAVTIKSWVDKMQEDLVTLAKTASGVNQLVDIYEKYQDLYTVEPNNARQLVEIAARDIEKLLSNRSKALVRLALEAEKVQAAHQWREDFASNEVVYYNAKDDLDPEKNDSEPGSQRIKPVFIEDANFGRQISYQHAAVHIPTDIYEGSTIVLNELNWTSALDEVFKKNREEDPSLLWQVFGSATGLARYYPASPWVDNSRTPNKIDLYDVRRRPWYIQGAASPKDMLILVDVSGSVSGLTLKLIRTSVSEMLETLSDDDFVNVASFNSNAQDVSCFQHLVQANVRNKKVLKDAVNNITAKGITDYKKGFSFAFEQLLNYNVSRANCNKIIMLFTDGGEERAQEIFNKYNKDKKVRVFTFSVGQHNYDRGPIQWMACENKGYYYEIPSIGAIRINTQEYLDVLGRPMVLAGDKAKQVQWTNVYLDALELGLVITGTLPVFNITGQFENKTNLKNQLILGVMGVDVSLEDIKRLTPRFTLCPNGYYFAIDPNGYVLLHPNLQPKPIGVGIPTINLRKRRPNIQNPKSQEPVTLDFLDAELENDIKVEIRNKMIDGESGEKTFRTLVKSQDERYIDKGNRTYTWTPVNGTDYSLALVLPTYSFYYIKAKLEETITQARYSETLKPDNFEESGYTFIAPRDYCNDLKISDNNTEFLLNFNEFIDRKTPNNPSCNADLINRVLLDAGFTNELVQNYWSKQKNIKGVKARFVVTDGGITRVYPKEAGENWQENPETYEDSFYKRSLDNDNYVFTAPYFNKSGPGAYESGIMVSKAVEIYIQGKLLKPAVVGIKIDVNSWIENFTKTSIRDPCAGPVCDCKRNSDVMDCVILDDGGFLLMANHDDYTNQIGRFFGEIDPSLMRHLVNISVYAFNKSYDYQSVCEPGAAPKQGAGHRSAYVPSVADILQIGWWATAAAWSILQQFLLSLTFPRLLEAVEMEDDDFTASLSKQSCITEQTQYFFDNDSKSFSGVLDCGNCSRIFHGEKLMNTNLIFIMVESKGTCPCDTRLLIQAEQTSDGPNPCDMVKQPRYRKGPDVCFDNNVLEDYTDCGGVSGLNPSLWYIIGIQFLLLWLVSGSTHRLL

Sequence of Human μ-opioid receptor (P35372 whole entry): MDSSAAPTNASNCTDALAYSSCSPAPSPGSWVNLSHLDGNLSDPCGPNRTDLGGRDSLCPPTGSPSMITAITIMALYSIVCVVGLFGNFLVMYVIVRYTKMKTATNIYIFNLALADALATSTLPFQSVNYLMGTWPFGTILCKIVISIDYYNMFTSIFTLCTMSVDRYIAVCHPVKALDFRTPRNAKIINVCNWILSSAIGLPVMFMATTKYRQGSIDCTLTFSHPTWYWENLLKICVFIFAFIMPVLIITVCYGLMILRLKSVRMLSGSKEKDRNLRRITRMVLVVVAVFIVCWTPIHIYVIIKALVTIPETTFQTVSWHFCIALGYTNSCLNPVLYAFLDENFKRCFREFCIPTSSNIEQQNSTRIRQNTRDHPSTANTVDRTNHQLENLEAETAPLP

Row | SMILES | Ki (Human μ-opioid receptor) [nM] | Ki [1] [nM] | Ki (Human μ-opioid receptor; read-out: μ-binding) [nM] | Ki ([1]; read-out: α2δ-1 binding) [nM]
1 | CCCC(c1nc2cccnc2c(=O)n1CC)N1CCNCC1 (stereo not drawn) [Example 92, 3-ethyl-2-(1-(piperazin-1-yl)butyl)pyrido[3,2-d]pyrimidin-4(3H)-one] | > 500 | < 500 |  | 
2 | CCCC(c1nc2ncc(Br)cc2c(=O)n1CC)N1CCNCC1 (stereo not drawn) [Example 93, 6-bromo-3-ethyl-2-(1-(piperazin-1-yl)butyl)pyrido[2,3-d]pyrimidin-4(3H)-one] | > 500 | < 500 |  | 
3 | CCCC(c1nc2ncccc2c(=O)n1CC)N1CCNCC1 (stereo not drawn) [Example 94, 3-ethyl-2-(1-(piperazin-1-yl)butyl)pyrido[2,3-d]pyrimidin-4(3H)-one] | > 500 | < 500 |  | 
4 | CCC[C@@H](c1nc2c(F)cc(Br)cc2c(=O)n1CC)N1CCNCC1 [Example 95, (S)-6-bromo-3-ethyl-8-fluoro-2-(1-(piperazin-1-yl)butyl)quinazolin-4(3H)-one] | > 500 | > 5000 |  | 
5 | CCC[C@H](c1nc2c(F)cc(Br)cc2c(=O)n1CC)N1CCNCC1 [Example 96, (R)-6-bromo-3-ethyl-8-fluoro-2-(1-(piperazin-1-yl)butyl)quinazolin-4(3H)-one] | 100 to 500 | < 500 |  | 
6 | CCC[C@H](c1nc2ccc(Br)cc2c(=O)n1CC)N1CCN[C@@H](C)C1 [Example 97, 6-Bromo-3-ethyl-2-((R)-1-((S)-3-methylpiperazin-1-yl)butyl)quinazolin-4(3H)-one] | 100 to 500 | < 500 |  | 
7 | CCC[C@H](c1nc2ccc(Br)cc2c(=O)n1CC)N1CCN[C@H](C)C1 [Example 98, 6-bromo-3-ethyl-2-((R)-1-((R)-3-methylpiperazin-1-yl)butyl)quinazolin-4(3H)-one] | > 500 | < 500 |  | 
8 | CCC[C@@H](c1nc2ccc(Br)cc2c(=O)n1CC)N1CCN[C@@H](C)C1 [Example 99, 6-bromo-3-ethyl-2-((S)-1-((S)-3-methylpiperazin-1-yl)butyl)quinazolin-4(3H)-one] | > 500 | < 500 |  | 
9 | CCC[C@@H](c1nc2ccc(Br)cc2c(=O)n1CC)N1CCN[C@H](C)C1 [Example 100, 6-bromo-3-ethyl-2-((S)-1-((R)-3-methylpiperazin-1-yl)butyl)quinazolin-4(3H)-one] | > 500 | > 5000 |  | 
10 | CCC[C@H](c1nc2ccc(Cl)cc2c(=O)n1CC)N1CCN[C@H](C)C1 [Example 101, 6-Chloro-3-ethyl-2-((R)-1-((R)-3-methylpiperazin-1-yl)butyl)quinazolin-4(3H)-one] | > 500 | < 500 |  | 
11 | CCC[C@@H](c1nc2ccc(Cl)cc2c(=O)n1CC)N1CCN[C@H](C)C1 [Example 102, 6-chloro-3-ethyl-2-((S)-1-((R)-3-methylpiperazin-1-yl)butyl)quinazolin-4(3H)-one] | > 500 | > 5000 |  | 
12 | CCC[C@H](c1nc2ccc(Cl)cc2c(=O)n1CC)N1CCN[C@@H](C)C1 [Example 103, 6-Chloro-3-ethyl-2-((R)-1-((S)-3-methylpiperazin-1-yl)butyl)quinazolin-4(3H)-one] | < 100 | < 500 |  | 
13 | CCC[C@@H](c1nc2ccc(Cl)cc2c(=O)n1CC)N1CCN[C@@H](C)C1 [Example 104, 6-chloro-3-ethyl-2-((S)-1-((S)-3-methylpiperazin-1-yl)butyl)quinazolin-4(3H)-one] | > 500 | > 5000 |  | 
14 | CCC[C@@H](c1nc2cc(F)c(Br)cc2c(=O)n1CC)N1CCN[C@@H](C)C1 [Example 105, 6-Bromo-3-ethyl-7-fluoro-2-((S)-1-((S)-3-methylpiperazin-1-yl)butyl)quinazolin-4(3H)-one] | > 500 | < 500 |  | 
15 | CCC[C@H](c1nc2cc(F)c(Br)cc2c(=O)n1CC)N1CCN[C@@H](C)C1 [Example 106, 6-bromo-3-ethyl-7-fluoro-2-((R)-1-((S)-3-methylpiperazin-1-yl)butyl)quinazolin-4(3H)-one] | < 100 | < 500 |  | 
16 | CCC[C@@H](c1nc2ccc(Br)cc2c(=O)n1CC)N1CCN[C@@H](CCC(=O)O)C1 [Example 107, 3-((S)-4-((S)-1-(6-Bromo-3-ethyl-4-oxo-3,4-dihydroquinazolin-2-yl)butyl)piperazin-2-yl)propanoic acid] |  |  | > 500 | > 5000
17 | CCC[C@H](c1nc2ccc(Br)cc2c(=O)n1CC)N1CCN[C@@H](CCC(=O)O)C1 [Example 108, 3-((S)-4-((R)-1-(6-bromo-3-ethyl-4-oxo-3,4-dihydroquinazolin-2-yl)butyl)piperazin-2-yl)propanoic acid] |  |  | > 500 | > 5000
18 | CCC[C@H](c1nc2ccc(Br)cc2c(=O)n1CC)N1CCN(C)[C@H](C)C1 [Example 109, 6-Bromo-2-((R)-1-((R)-3,4-dimethylpiperazin-1-yl)butyl)-3-ethylquinazolin-4(3H)-one] | 100 to 500 | < 500 |  | 

Row | SMILES | Ki (Human μ-opioid receptor) [nM] | Ki [1] [nM] | Ki (Human μ-opioid receptor; read-out: μ-binding) [nM] | Ki ([1]; read-out: α2δ-1 binding) [nM]
19 | CCC[C@@H](c1nc2ccc(Br)cc2c(=O)n1CC)N1CCN(C)[C@H](C)C1 [Example 110, 6-bromo-2-((S)-1-((R)-3,4-dimethylpiperazin-1-yl)butyl)-3-ethylquinazolin-4(3H)-one] | > 500 | > 5000 |  | 
20 | CCC[C@@H](c1nc2ccc(Br)cc2c(=O)n1CC)N1CCN(C)[C@@H](C)C1 [Example 111, 6-Bromo-2-((S)-1-((S)-3,4-dimethylpiperazin-1-yl)butyl)-3-ethylquinazolin-4(3H)-one] | > 500 | > 5000 |  | 
21 | CCC[C@H](c1nc2ccc(Br)cc2c(=O)n1CC)N1CCN(C)[C@@H](C)C1 [Example 112, 6-bromo-2-((R)-1-((S)-3,4-dimethylpiperazin-1-yl)butyl)-3-ethylquinazolin-4(3H)-one] | < 100 | 500 to 5000 |  | 
22 | CCCC(c1nc2ccccc2c(=O)n1CCOC)N1C[C@@H](C)N[C@@H](C)C1 (stereo partly drawn) [Example 113, 2-(1-((3S,5R)-3,5-Dimethylpiperazin-1-yl)butyl)-3-(2-methoxyethyl)quinazolin-4(3H)-one] | > 500 | < 500 |  | 
23 | COCCn1c(C(CC(C)C)N2C[C@@H](C)N[C@@H](C)C2)nc2ccccc2c1=O (stereo partly drawn) [Example 114, 2-(1-((3S,5R)-3,5-dimethylpiperazin-1-yl)-3-methylbutyl)-3-(2-methoxyethyl)quinazolin-4(3H)-one] |  |  | > 500 | > 5000
24 | CCCCC(c1nc2ccccc2c(=O)n1CCOC)N1C[C@@H](C)N[C@@H](C)C1 (stereo partly drawn) [Example 115, 2-(1-((3S,5R)-3,5-dimethylpiperazin-1-yl)pentyl)-3-(2-methoxyethyl)quinazolin-4(3H)-one] |  | 500 to 5000 | > 500 | 
25 | COCCn1c(C(CC2CC2)N2C[C@@H](C)N[C@@H](C)C2)nc2ccccc2c1=O (stereo partly drawn) [Example 116, 2-(2-cyclopropyl-1-((3S,5R)-3,5-dimethylpiperazin-1-yl)ethyl)-3-(2-methoxyethyl)quinazolin-4(3H)-one] |  | 500 to 5000 | > 500 | 
26 | CCCC(c1nc2ccccc2c(=O)n1CCOC)N1CCNCC1 (stereo not drawn) [Example 117, 3-(2-methoxyethyl)-2-(1-(piperazin-1-yl)butyl)quinazolin-4(3H)-one] |  | 500 to 5000 | > 500 | 
27 | CCCC(c1nc2ccccc2c(=O)n1Cc1ccco1)N1C[C@@H](C)N[C@@H](C)C1 (stereo partly drawn) [Example 118, 2-(1-((3S,5R)-3,5-dimethylpiperazin-1-yl)butyl)-3-(furan-2-ylmethyl)quinazolin-4(3H)-one] | > 500 | < 500 |  | 
28 | CCCC(c1nc2ccc(C)cc2c(=O)n1CCOC)N1C[C@@H](C)N[C@@H](C)C1 (stereo partly drawn) [Example 119, 2-(1-((3S,5R)-3,5-dimethylpiperazin-1-yl)butyl)-3-(2-methoxyethyl)-6-methylquinazolin-4(3H)-one] | > 500 | < 500 |  | 
29 | CCCC(c1nc2ccc(OC)cc2c(=O)n1CCOC)N1C[C@@H](C)N[C@@H](C)C1 (stereo partly drawn) [Example 120, 2-(1-((3S,5R)-3,5-dimethylpiperazin-1-yl)butyl)-6-methoxy-3-(2-methoxyethyl)quinazolin-4(3H)-one] | > 500 | < 500 |  | 
30 | CCCC(c1nc2cnccc2c(=O)n1CCOC)N1C[C@@H](C)N[C@@H](C)C1 (stereo partly drawn) [Example 121, 2-(1-((3S,5R)-3,5-dimethylpiperazin-1-yl)butyl)-3-(2-methoxyethyl)pyrido[3,4-d]pyrimidin-4(3H)-one] | > 500 | < 500 |  | 
31 | CCCC(c1nc2ccc(Br)cc2c(=O)n1CCC(=O)OCC)N1C[C@@H](C)N[C@@H](C)C1 (stereo partly drawn) [Example 122, ethyl 3-(6-bromo-2-(1-((3S,5R)-3,5-dimethylpiperazin-1-yl)butyl)-4-oxoquinazolin-3(4H)-yl)propanoate] |  |  | > 500 | 500 to 5000
32 | CCC[C@H](c1nc2ccccc2c(=O)n1CCOC)N1C[C@@H](C)N[C@@H](C)C1 [Example 123, 2-((R)-1-((3S,5R)-3,5-Dimethylpiperazin-1-yl)butyl)-3-(2-methoxyethyl)quinazolin-4(3H)-one] | > 500 | < 500 |  | 
33 | CCC[C@@H](c1nc2ccccc2c(=O)n1CCOC)N1C[C@@H](C)N[C@@H](C)C1 [Example 124, 2-((S)-1-((3S,5R)-3,5-dimethylpiperazin-1-yl)butyl)-3-(2-methoxyethyl)quinazolin-4(3H)-one] | > 500 | 500 to 5000 |  | 
34 | CCCC(c1nc2ccc(Br)cc2c(=O)n1CCC(=O)O)N1C[C@@H](C)N[C@@H](C)C1 (stereo partly drawn) [Example 125, 3-(6-Bromo-2-(1-((3S,5R)-3,5-dimethylpiperazin-1-yl)butyl)-4-oxoquinazolin-3(4H)-yl)propanoic acid] | 100 to 500 | 500 to 5000 |  | 
35 | CCCC(c1nc2ccc(Br)cc2c(=O)n1CC(=O)O)N1C[C@@H](C)N[C@@H](C)C1 (stereo partly drawn) [Example 126, 2-(6-bromo-2-(1-((3S,5R)-3,5-dimethylpiperazin-1-yl)butyl)-4-oxoquinazolin-3(4H)-yl)acetic acid] |  |  | > 500 | > 5000
36 | CCCC(c1nc2ccccc2c(=O)n1CCNC)N1C[C@@H](C)N[C@@H](C)C1 (stereo partly drawn) [Example 127, 2-(1-((3S,5R)-3,5-Dimethylpiperazin-1-yl)butyl)-3-(2-(methylamino)ethyl)quinazolin-4(3H)-one] |  | 500 to 5000 | > 500 | 

— US20220002314A1 (priority 2018, published 2022)
